Format in all cases: functional
The test system of experiment [1] is Staphylococcus aureus. Briefly: Antibacterial activity against gentamycin and arbekacin-resistant Staphylococcus aureus MF490 expressing AAD(4'), AAC(6')-APH(2'') enzymes by twofold agar dilution method. Background: In agar dilution the substance is mixed into plates at graded concentrations.
For experiment [2], the system named is Pseudomonas aeruginosa. Put plainly: Antibacterial activity against Pseudomonas aeruginosa PAO1 by twofold agar dilution method.
The subject of the next experiment is Escherichia coli. Put plainly: Antibacterial activity against Escherichia coli NIH JC2 by twofold agar dilution method.
Experiment [3] deals with Staphylococcus aureus. Put plainly: Antibacterial activity against gentamycin and arbekacin-resistant Staphylococcus aureus RN4220/pMF490 expressing AAC(6')-APH(2'') enzyme by twofold agar dilution method.
The subject of experiment [4] is Staphylococcus aureus. Put plainly: Antibacterial activity against Staphylococcus aureus RN4220/pCR1948 expressing AAC(6')-APH(2'') enzyme by twofold agar dilution method.
In experiment [5] the test system is Pseudomonas aeruginosa. Briefly: Antibacterial activity against Pseudomonas aeruginosa GN4925 expressing AAC(6')-Ib by twofold agar dilution method.
The test system of experiment [6] is Staphylococcus aureus. Put plainly: Antibacterial activity against Staphylococcus aureus RN4220/pMS520 expressing AAD(4')-I enzyme by twofold agar dilution method.
Experiment [7] concerns Pseudomonas aeruginosa. Put plainly: Antibacterial activity against Pseudomonas aeruginosa GN3054 expressing AAC(3)-I by twofold agar dilution method.
In experiment [8] the test system is Staphylococcus aureus. Briefly: Antibacterial activity against Staphylococcus aureus RN4220 by twofold agar dilution method.

Values after ≈ are worked out from the molar mass of the structure shown. Bounds are passed on as bounds.

A word on the MIC: it is the lowest concentration found to suppress growth. As to `NCCCNC(=O)O[C@@H]1[C@@H](O)[C@H](O[C@H]2O[C@H](CN)CC[C@H]2N)[C@@H](N)C[C@H]1NC(=O)[C@@H](O)CCN`, the minimum inhibitory concentration (MIC) in the experiment with Staphylococcus aureus [1] came out at 64 µg/mL (≈ 130 µM); against Pseudomonas aeruginosa [2], 32 µg/mL (≈ 65.1 µM); with Escherichia coli, 64 µg/mL (≈ 130 µM); against Staphylococcus aureus [3] it was 16 µg/mL (≈ 32.5 µM); in the experiment with Staphylococcus aureus [4] it was 16 µg/mL (≈ 32.5 µM); with Pseudomonas aeruginosa [5], 128 µg/mL (≈ 260 µM). Besides, the MIC in the experiment with Staphylococcus aureus [6] was determined as 16 µg/mL (≈ 32.5 µM); against Pseudomonas aeruginosa [7], 128 µg/mL (≈ 260 µM); with Staphylococcus aureus [8] it was 16 µg/mL (≈ 32.5 µM).

Regarding `NCCNC(=O)O[C@@H]1[C@@H](O)[C@H](O[C@H]2O[C@H](CN)CC[C@H]2N)[C@@H](N)C[C@H]1NC(=O)[C@@H](O)CCN`, the minimal inhibitory concentration (MIC) in the experiment with Staphylococcus aureus [1] was 32 µg/mL (≈ 67 µM); against Pseudomonas aeruginosa [2], greater than 32 µg/mL; against Escherichia coli, 32 µg/mL (≈ 67 µM); with Staphylococcus aureus [3], 16 µg/mL (≈ 33.5 µM); with Staphylococcus aureus [4], 8 µg/mL (≈ 16.8 µM); in the experiment with Pseudomonas aeruginosa [5], greater than 32 µg/mL. For the same compound, the MIC in the experiment with Staphylococcus aureus [6] is 8 µg/mL (≈ 16.8 µM); in the experiment with Pseudomonas aeruginosa [7], greater than 32 µg/mL; in the experiment on Staphylococcus aureus [8] it was 8 µg/mL (≈ 16.8 µM).

As to `NCCNC(=O)O[C@@H]1[C@@H](O)[C@H](NC(=O)[C@@H](O)CCN)C[C@H](N)[C@H]1O[C@H]1O[C@H](CN)CC[C@H]1N`, the MIC in the experiment on Staphylococcus aureus [1] turned out to be 8 µg/mL (≈ 16.8 µM); against Pseudomonas aeruginosa [2] it was 8 µg/mL (≈ 16.8 µM); with Escherichia coli it was 8 µg/mL (≈ 16.8 µM); against Staphylococcus aureus [3], 2 µg/mL (≈ 4.19 µM); against Staphylococcus aureus [4], 2 µg/mL (≈ 4.19 µM); in the experiment on Pseudomonas aeruginosa [5], 8 µg/mL (≈ 16.8 µM). Moreover, the figures for the MIC in the experiment on Staphylococcus aureus [6], against Pseudomonas aeruginosa [7] and against Staphylococcus aureus [8] were 2 µg/mL (≈ 4.19 µM), 16 µg/mL (≈ 33.5 µM) and 2 µg/mL (≈ 4.19 µM), respectively.

Consider `NCCCNC(=O)O[C@@H]1[C@@H](O)[C@H](NC(=O)[C@@H](O)CCN)C[C@H](N)[C@H]1O[C@H]1O[C@H](CN)CC[C@H]1N`, for which the MIC came to 128 µg/mL (≈ 260 µM) against Staphylococcus aureus [1]; 32 µg/mL (≈ 65.1 µM) with Pseudomonas aeruginosa [2]; 32 µg/mL (≈ 65.1 µM) in the experiment with Escherichia coli; 32 µg/mL (≈ 65.1 µM) against Staphylococcus aureus [3]; 16 µg/mL (≈ 32.5 µM) with Staphylococcus aureus [4]; 128 µg/mL (≈ 260 µM) with Pseudomonas aeruginosa [5]. Moreover, the MIC against Staphylococcus aureus [6] came out at 16 µg/mL (≈ 32.5 µM); with Pseudomonas aeruginosa [7], 64 µg/mL (≈ 130 µM); in the experiment on Staphylococcus aureus [8] it was 16 µg/mL (≈ 32.5 µM).

For the compound `NCC[C@H](O)C(=O)N[C@@H]1C[C@H](N)[C@@H](O[C@H]2O[C@H](CN)CC[C@H]2N)[C@H](O)[C@H]1O`, the minimum inhibitory concentration (MIC) in the experiment on Staphylococcus aureus [1] was found to be 8 µg/mL (≈ 20.4 µM); in the experiment on Pseudomonas aeruginosa [2], 8 µg/mL (≈ 20.4 µM); against Escherichia coli it was 8 µg/mL (≈ 20.4 µM); against Staphylococcus aureus [3], 4 µg/mL (≈ 10.2 µM); in the experiment on Staphylococcus aureus [4], 2 µg/mL (≈ 5.11 µM); against Pseudomonas aeruginosa [5], 64 µg/mL (≈ 163 µM). Besides, the minimal inhibitory concentration (MIC) with Staphylococcus aureus [6] was determined as 4 µg/mL (≈ 10.2 µM); with Pseudomonas aeruginosa [7], 16 µg/mL (≈ 40.9 µM); in the experiment with Staphylococcus aureus [8], 4 µg/mL (≈ 10.2 µM).

For the compound `NCC[C@H](O)C(=O)N[C@@H]1C[C@H](N)[C@@H](O[C@H]2O[C@H](CN)CC[C@H]2N)[C@H](O)[C@H]1O[C@H]1O[C@H](CO)[C@@H](O)[C@H](N)[C@H]1O` [ARBEKACIN], the MIC against Staphylococcus aureus [1] amounted to 64 µg/mL (≈ 116 µM); in the experiment on Pseudomonas aeruginosa [2], 4 µg/mL (≈ 7.24 µM); in the experiment on Escherichia coli, 1 µg/mL (≈ 1.81 µM); against Staphylococcus aureus [3] it was 8 µg/mL (≈ 14.5 µM); in the experiment on Staphylococcus aureus [4], 1 µg/mL (≈ 1.81 µM); against Pseudomonas aeruginosa [5], 4 µg/mL (≈ 7.24 µM). Further, the MIC in the experiment with Staphylococcus aureus [6] is 0.5 µg/mL (≈ 0.905 µM); in the experiment with Pseudomonas aeruginosa [7], 8 µg/mL (≈ 14.5 µM); in the experiment with Staphylococcus aureus [8], 0.5 µg/mL (≈ 0.905 µM).

Turning to `CN[C@@H]1[C@@H](O)[C@@H](O[C@@H]2[C@@H](O)[C@H](O[C@H]3O[C@H]([C@@H](C)NC)CC[C@H]3N)[C@@H](N)C[C@H]2N)OC[C@]1(C)O` [GENTAMICIN C1], the minimum inhibitory concentration (MIC) was greater than 128 µg/mL in the experiment on Staphylococcus aureus [1]; 4 µg/mL (≈ 8.38 µM) in the experiment with Pseudomonas aeruginosa [2]; 0.5 µg/mL (≈ 1.05 µM) against Escherichia coli; greater than 128 µg/mL against Staphylococcus aureus [3]; 64 µg/mL (≈ 134 µM) against Staphylococcus aureus [4]; 128 µg/mL (≈ 268 µM) with Pseudomonas aeruginosa [5]. Further, the results for the MIC with Staphylococcus aureus [6], against Pseudomonas aeruginosa [7] and against Staphylococcus aureus [8] were 0.25 µg/mL (≈ 0.523 µM), 128 µg/mL (≈ 268 µM) and 0.25 µg/mL (≈ 0.523 µM), respectively.

For `CN[C@@H]1[C@@H](O)[C@@H](O[C@@H]2[C@@H](O)[C@H](O[C@H]3O[C@H](C(C)N)CC[C@H]3N)[C@@H](N)C[C@H]2N)OC[C@]1(C)O` (stereo not given in full) [GENTAMICIN C2], the MIC in the experiment on Staphylococcus aureus [1] is greater than 128 µg/mL; against Pseudomonas aeruginosa [2], 4 µg/mL (≈ 8.63 µM); in the experiment with Escherichia coli it was 0.5 µg/mL (≈ 1.08 µM); in the experiment on Staphylococcus aureus [3], greater than 128 µg/mL; in the experiment on Staphylococcus aureus [4] it was 64 µg/mL (≈ 138 µM); in the experiment with Pseudomonas aeruginosa [5], 128 µg/mL (≈ 276 µM). The results for the minimum inhibitory concentration (MIC) in the experiment on Staphylococcus aureus [6], in the experiment on Pseudomonas aeruginosa [7] and against Staphylococcus aureus [8] were 0.25 µg/mL (≈ 0.539 µM), 128 µg/mL (≈ 276 µM) and 0.25 µg/mL (≈ 0.539 µM), respectively.

As for `NC[C@@H]1CC[C@@H](N)[C@@H](O[C@H]2[C@H](O)[C@@H](O)[C@H](N)C[C@@H]2N)O1` [GENTAMINE C1A], the minimal inhibitory concentration (MIC) in the experiment on Staphylococcus aureus [1] was greater than 128 µg/mL; against Pseudomonas aeruginosa [2], 32 µg/mL (≈ 110 µM); in the experiment on Escherichia coli, 32 µg/mL (≈ 110 µM); against Staphylococcus aureus [4], greater than 128 µg/mL; against Pseudomonas aeruginosa [5], greater than 128 µg/mL; in the experiment with Staphylococcus aureus [6], 16 µg/mL (≈ 55.1 µM). For the same compound, the results for the minimum inhibitory concentration (MIC) against Pseudomonas aeruginosa [7] and against Staphylococcus aureus [8] were 64 µg/mL (≈ 220 µM) and 16 µg/mL (≈ 55.1 µM), respectively.

The values are drawn from ChEMBL document CHEMBL1146150, “Synthesis and antibacterial activity of novel neamine derivatives” (2006).
